# Test system: RAS-mutant cancer cell lines pERK
# Assay: Phospho-ERK inhibition in a panel of cancer cell lines (AlphaLISA)
# Type: cell-based, human
# Description: All cancer cell lines (A375, A101D, A2058, RKO, HT29 SK-MEL 30, IPC298, HepG2, HCT-116, Lovo, SW620, SW480, NCI-H358, NCI-H2122, Calu-6, NCIH2087, NCIH1755, NCIH1666 and Mewo) were obtained from ATCC and cultured in RPMI-1640 medium (Gibco) supplemented with 5% heat inactivated fetal bovine serum (FBS, Wisent) at 37° C. under 5% CO2. Cells were maintained in T175 flasks (Greiner). They were passaged by removing the culture medium, washing once in 10 mL of room temperature Phosphate Buffered Saline (PBS; Wisent) and incubating at 37° C. with 2 mL of 0.05% Trypsin (Thermo-Fisher). […]
# After treatment, media was removed, and cells were lysed in 50 μL of 1× AlphaScreen Ultra Lysis Buffer (Perkin Elmer). […] After completion of the reactions, the signals were recorded on an EnVision plate reader (Perkin Elmer) using built in AlphaLISA® settings.
# The effect of each compound dilution on the pERK signal was expressed in % inhibition and calculated as follows. […]
# The ability of each compound to inhibit pERK signal was expressed as an IC50 value obtained by plotting the inhibition values for each data point of a dilution series and fitting the obtained curves using a log(agonist) versus response−variable slope (four parameters) function using GraphPadPrism (V7.0). […]
smiles,measurement,setting,value
"Cc1ccc2c(Nc3cccc(Cl)c3F)nccc2c1NC(=O)c1csc2c(N)ncnc12 [Belvarafenib, reference compound]",paradoxical induction of the pathway (pERK),RAS-mutant cell lines of Table D,mild to strong induction of the pathway
same,YMIN of pERK IC50 curves,in 11 of the 13 RAS-mutant cell lines tested,< −30%
